No end group written: not given here.
molecular target: T1, I-A^g7 (Mus musculus, UniProt P04228+Q31135); format: binding, NOD mouse
T1 sequence (P04228 24-256): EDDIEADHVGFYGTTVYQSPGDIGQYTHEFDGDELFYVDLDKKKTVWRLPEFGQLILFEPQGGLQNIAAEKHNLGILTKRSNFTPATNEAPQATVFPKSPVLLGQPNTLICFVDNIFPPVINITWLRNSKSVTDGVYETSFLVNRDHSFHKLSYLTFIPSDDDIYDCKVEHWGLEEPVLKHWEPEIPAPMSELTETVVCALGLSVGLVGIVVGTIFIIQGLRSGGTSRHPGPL
T1 sequence (Q31135 1-263): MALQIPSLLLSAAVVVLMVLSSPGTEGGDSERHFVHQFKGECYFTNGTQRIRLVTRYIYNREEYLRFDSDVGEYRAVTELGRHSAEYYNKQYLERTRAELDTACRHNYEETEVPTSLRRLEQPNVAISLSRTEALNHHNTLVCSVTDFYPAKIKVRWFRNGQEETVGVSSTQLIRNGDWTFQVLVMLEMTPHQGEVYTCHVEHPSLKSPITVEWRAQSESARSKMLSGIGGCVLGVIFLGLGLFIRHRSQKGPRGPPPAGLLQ

**Q.** How did the IC50 turn out when GHVAGSLAILTDAA [91–104] was run?
**A.** 0.6 µM

**Q.** LTIQIESAADQDPSC [345–359] was tested. Which IC50 did it give?
**A.** 1.1 µM

**Q.** For GYNHKDVQANASVR [201–214], which IC50 is on record?
**A.** 88.2 µM

**Q.** How did the IC50 turn out when SVRAAFVHALGDVF [212–225] was run?
**A.** 0.6 µM

**Q.** How did the IC50 turn out when RTGIAQALSSFDLHS [330–344] was run?
**A.** 5.7 µM

**Q.** Which IC50 does the source give for AVDGVISVHSLHIW [292–305] here?
**A.** 5.1 µM
